Assay [1] has as its target T1, F508delCFTR (Homo sapiens, UniProt P13569, DEL508-508).
T1 construct: expressed in transfected cells; host or cells: CFBE41o- human lung-derived epithelial cells (CFBE41o-F508delCFTR-HRP), doxycycline-inducible
The experiment in a line: Cell Surface Expression-Horse Radish Peroxidase (CSE-HRP) assay, test compound with co-corrector.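 For Maximum % activity (with co-corrector): percent of 2 µM positive control corrector over DMSO; co-corrector is that same compound.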 In kind it is cell-based. The following applies: for Maximum % activity (with co-corrector): maximum at any tested concentration. Summed up:
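CFBE41o- cells expressing F508delCFTR with HRP in the fourth exofacial loop, induced with 0.5 μg/mL doxycycline for 72 h, then treated 18-24 h at 33° C. with compound (8 points, top 20 μM, 3-fold) plus 2 μM co-corrector. Surface HRP read by luminol luminescence; activity normalised to positive control, EC50 from variable-slope sigmoidal fit.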

Assay [2] addresses T1, F508delCFTR. The experiment in a line: Cell Surface Expression-Horse Radish Peroxidase (CSE-HRP) assay, test compound without co-corrector.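 For Emax: percent of on-plate 2 µM positive control corrector response over DMSO.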 It is filed as cell-based. As to conditions: for Emax: maximum at any tested concentration, without co-corrector; for EC50: test compound without co-corrector. Summed up: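 CFBE41o- cells expressing F508delCFTR with HRP in the fourth exofacial loop, induced with 0.5 μg/mL doxycycline for 72 h at 37° C, then exposed to compound alone for 18-24 h at 33° C, 8-point 3-fold series from 20 μM. Surface HRP read by luminol luminescence, normalized to positive corrector control versus DMSO; EC50 from variable-slope sigmoidal fit of three replicate plates.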

[3] abbreviates: normalized to positive control, with 2 μM co-corrector.
[4] abbreviates: CSE-HRP assay, test compound with 2 μM co-corrector.
Where [5] appears, read: normalized to on-plate positive control, with 2 μM co-corrector.
Where [6] appears, read: normalized to on-plate positive control.

T1 sequence (P13569 with tags, fused parts or gaps DEL508-508): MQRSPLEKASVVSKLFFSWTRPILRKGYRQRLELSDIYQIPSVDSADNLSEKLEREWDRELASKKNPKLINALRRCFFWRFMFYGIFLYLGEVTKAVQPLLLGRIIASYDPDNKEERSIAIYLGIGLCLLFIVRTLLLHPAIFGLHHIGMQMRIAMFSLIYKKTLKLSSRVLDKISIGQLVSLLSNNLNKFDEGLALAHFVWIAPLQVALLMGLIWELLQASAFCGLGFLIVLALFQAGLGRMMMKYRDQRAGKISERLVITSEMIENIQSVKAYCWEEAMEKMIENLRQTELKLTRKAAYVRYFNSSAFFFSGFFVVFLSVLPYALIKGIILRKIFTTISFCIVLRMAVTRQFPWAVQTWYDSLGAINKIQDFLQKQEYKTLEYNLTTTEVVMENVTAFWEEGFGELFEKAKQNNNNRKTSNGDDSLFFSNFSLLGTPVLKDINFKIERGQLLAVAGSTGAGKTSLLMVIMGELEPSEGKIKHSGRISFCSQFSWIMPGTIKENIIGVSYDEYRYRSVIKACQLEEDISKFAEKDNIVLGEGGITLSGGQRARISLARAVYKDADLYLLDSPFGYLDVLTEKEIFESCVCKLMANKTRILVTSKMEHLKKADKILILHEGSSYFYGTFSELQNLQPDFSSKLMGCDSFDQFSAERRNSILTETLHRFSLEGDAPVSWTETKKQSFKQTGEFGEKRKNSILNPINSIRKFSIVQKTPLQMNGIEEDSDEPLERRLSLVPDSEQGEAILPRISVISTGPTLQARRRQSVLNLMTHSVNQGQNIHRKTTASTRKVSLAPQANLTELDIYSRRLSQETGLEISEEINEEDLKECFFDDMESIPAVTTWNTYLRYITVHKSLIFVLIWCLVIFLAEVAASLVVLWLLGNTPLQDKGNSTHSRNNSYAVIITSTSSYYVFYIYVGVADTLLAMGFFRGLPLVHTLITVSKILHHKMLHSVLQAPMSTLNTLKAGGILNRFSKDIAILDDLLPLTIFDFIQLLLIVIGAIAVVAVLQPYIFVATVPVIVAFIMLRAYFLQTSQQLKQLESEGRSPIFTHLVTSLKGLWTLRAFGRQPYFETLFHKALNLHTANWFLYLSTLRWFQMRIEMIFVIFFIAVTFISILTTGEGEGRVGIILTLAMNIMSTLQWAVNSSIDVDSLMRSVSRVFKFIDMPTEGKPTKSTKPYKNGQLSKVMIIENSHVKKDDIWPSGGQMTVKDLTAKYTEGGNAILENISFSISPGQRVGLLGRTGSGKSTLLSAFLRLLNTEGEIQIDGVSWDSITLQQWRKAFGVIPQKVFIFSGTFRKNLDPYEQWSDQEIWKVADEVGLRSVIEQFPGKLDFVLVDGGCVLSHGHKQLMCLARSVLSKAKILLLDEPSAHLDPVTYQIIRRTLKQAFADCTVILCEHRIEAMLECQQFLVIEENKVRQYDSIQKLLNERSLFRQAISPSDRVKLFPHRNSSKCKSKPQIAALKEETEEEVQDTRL

On to `O=C(NS(=O)(=O)c1cccc2ccccc12)[C@H]1CCCc2cccc(Cl)c21` [Example I-12, (1S)-8-chloro-N-(naphthalene-1-sulfonyl)-1,2,3,4-tetrahydronaphthalene-1-carboxamide], for which the “Maximum % activity (with co-corrector)” value in assay [1] (setting [3]) is “+++ (≥350)”. In addition, the EC50 in assay [1] (with 2 μM co-corrector) was under 3 µM; in assay [2], 3 to 10 µM. The same compound showed a maximum response (Emax) in assay [2] (normalized to positive control) of at least 150%.

Regarding `COCc1ccc(OC)c2c1CCC2C(=O)NS(=O)(=O)c1cccc2ccccc12` (centres unmarked) [Example I-139, 7-methoxy-4-(methoxymethyl)-N-(naphthalene-1-sulfonyl)-2,3-dihydro-1H-indene-1-carboxamide], in assay [1] (setting [3]), the “Maximum % activity (with co-corrector)” value is reported as “+++ (≥350)”. For the same compound, the EC50 in assay [1] (with 2 μM co-corrector) was under 3 µM; in assay [2], 3 to 10 µM. Moreover, the Emax in assay [2] (normalized to positive control) is at least 150%.

Take `COc1cccc2c1CCC2C(=O)NS(=O)(=O)c1ccc(C#N)cc1` (centres unmarked) [III-46]: the “Maximum % activity (with co-corrector)” value in assay [1] (setting [3]) is given as “+ (<150)”. Moreover, the EC50 in assay [1] (with 2 μM co-corrector) and in assay [2] was at least 10 µM each time. Moreover, in assay [2] (normalized to positive control), the Emax is under 50%.

Regarding `Cc1ccccc1S(=O)(=O)NC(=O)C1CCCc2cc(F)ccc21` (centres unmarked) [II-12], in assay [1] (setting [3]), the “Maximum % activity (with co-corrector)” value was “++ (≥150 and <350)”. Moreover, the concentration for a half-maximal effect (EC50) in assay [1] (with 2 μM co-corrector) and in assay [2] was 3 to 10 µM each time. Moreover, the Emax in assay [2] (normalized to positive control) is under 50%.

Take `COc1ccc(-c2ccc(C(F)(F)F)cc2)c2c1CCCC2C(=O)NS(=O)(=O)c1cccc2ccccc12` (centres unmarked) [III-154]: the concentration for a half-maximal effect (EC50) in assay [1] (setting [4]) and in assay [2] (CSE-HRP assay) was under 3 µM throughout. In assay [1] (setting [5]), the “Maximum % activity (with co-corrector)” value is reported as “+++ (≥350)”. This compound returned an Emax in assay [2] (setting [6]) of at least 150%.

`COc1cccc2c1CCC[C@H]2C(=O)NS(=O)(=O)c1cccnc1N` [III-107]: the EC50 in assay [1] (setting [4]) and in assay [2] (CSE-HRP assay) was 3 to 10 µM in each case. Also, in assay [1] (setting [5]), the “Maximum % activity (with co-corrector)” value is “+++ (≥350)”. This compound showed an Emax in assay [2] (setting [6]) of 50 to 150%.

As for `O=C(NS(=O)(=O)c1cccc2ccccc12)C1(CCN2CCCC2)CCc2c(Cl)cccc21` (centres unmarked) [Example III-111, 4-chloro-N-(naphthalene-1-sulfonyl)-1-[2-(pyrrolidin-1-yl)ethyl]-2,3-dihydro-1H-indene-1-carboxamide], the results for the EC50 in assay [1] (setting [4]) and in assay [2] (CSE-HRP assay) were 3 to 10 µM and at least 10 µM, respectively. Besides, in assay [1] (setting [5]), the “Maximum % activity (with co-corrector)” value is on record as “+ (<150)”. Moreover, in assay [2] (setting [6]), the Emax was under 50%.

For the compound `COc1cccc2c1CCC2C(=O)NS(=O)(=O)c1ccc(NC(C)=O)cc1Cl` (centres unmarked) [III-42], the “Maximum % activity (with co-corrector)” value in assay [1] (setting [3]) is given as “+ (<150)”. For the same compound, the concentration giving a half-maximal response (EC50) in assay [1] (with 2 μM co-corrector) and in assay [2] was at least 10 µM throughout. For the same compound, the Emax in assay [2] (normalized to positive control) is under 50%.

For the compound `COc1cccc2c1CCC[C@H]2C(=O)NS(=O)(=O)c1cccc2ccccc12` [Example I-3, (1R)-5-methoxy-N-(naphthalene-1-sulfonyl)-1,2,3,4-tetrahydronaphthalene-1-carboxamide], the “Maximum % activity (with co-corrector)” value in assay [1] (setting [3]) is reported as “+++ (≥350)”. Further, the EC50 in assay [1] (with 2 μM co-corrector) and in assay [2] was 3 to 10 µM each time. In addition, the maximal response (Emax) in assay [2] (normalized to positive control) was at least 150%.

For the compound `Cc1ccccc1S(=O)(=O)NC(=O)C1CCc2c(-c3ccn[nH]3)cccc21` (centres unmarked) [III-98], the EC50 in assay [1] (setting [4]) and in assay [2] (CSE-HRP assay) was at least 10 µM in each case. For the same compound, in assay [1] (setting [5]), the “Maximum % activity (with co-corrector)” value was “+ (<150)”. In assay [2] (setting [6]), this compound returned a maximum response (Emax) of under 50%.

For `COc1cccc2c1CCC2C(=O)NS(=O)(=O)c1ccccc1Cl` (centres unmarked) [II-30], the “Maximum % activity (with co-corrector)” value in assay [1] (setting [3]) was “++ (≥150 and <350)”. In addition, the EC50 in assay [1] (with 2 μM co-corrector) and in assay [2] was 3 to 10 µM each time. Also, in assay [2] (normalized to positive control), the maximal effect (Emax) was under 50%.

On to `COc1cccc2c1CCC2C(=O)NS(=O)(=O)c1cccc(F)c1C#N` (centres unmarked) [III-62], for which, in assay [1] (setting [3]), the “Maximum % activity (with co-corrector)” value was “+ (<150)”. Besides, the EC50 in assay [1] (with 2 μM co-corrector) is 3 to 10 µM; in assay [2], at least 10 µM. Also, the maximal effect (Emax) in assay [2] (normalized to positive control) was under 50%.

As to `COc1ncc(Br)c2c1[C@@H](C(=O)NS(=O)(=O)c1cccc3ccccc13)CCC2` [Example I-115, (8S)-4-bromo-1-methoxy-N-(naphthalene-1-sulfonyl)-5,6,7,8-tetrahydroisoquinoline-8-carboxamide], the “Maximum % activity (with co-corrector)” value in assay [1] (setting [3]) is listed as “+++ (≥350)”. In addition, the figures for the concentration for a half-maximal effect (EC50) in assay [1] (with 2 μM co-corrector) and in assay [2] were under 3 µM and 3 to 10 µM, respectively. The compound further showed a maximal effect (Emax) in assay [2] (normalized to positive control) of at least 150%.

Consider `O=C(NS(=O)(=O)c1cccc2ccccc12)C1CCc2c(Br)ccc(O)c21` (centres unmarked) [III-152], for which the EC50 in assay [1] (setting [4]) and in assay [2] (CSE-HRP assay) was 3 to 10 µM throughout. Moreover, in assay [1] (setting [5]), the “Maximum % activity (with co-corrector)” value is “++ (≥150 and <350)”. Further, in assay [2] (setting [6]), the maximal response (Emax) is under 50%.

With `COc1ccc(Br)c2c1[C@@H](C(=O)NS(=O)(=O)c1cccc3ncccc13)CC2` [Example I-46, (1S)-4-bromo-7-methoxy-N-(quinoline-5-sulfonyl)-2,3-dihydro-1H-indene-1-carboxamide], the “Maximum % activity (with co-corrector)” value in assay [1] (setting [3]) is reported as “+++ (≥350)”. Further, the 50% effective concentration (EC50) is under 3 µM in assay [1] (with 2 μM co-corrector) and 3 to 10 µM in assay [2]. The same compound gave an Emax in assay [2] (normalized to positive control) of at least 150%.

With `COCC1(C(=O)NS(=O)(=O)c2cccc3ccccc23)CCc2c(Cl)cccc21` (centres unmarked) [Example III-151, 4-chloro-1-(methoxymethyl)-N-(naphthalene-1-sulfonyl)-2,3-dihydro-1H-indene-1-carboxamide], the EC50 in assay [1] (setting [4]) and in assay [2] (CSE-HRP assay) was at least 10 µM each time. In addition, the “Maximum % activity (with co-corrector)” value in assay [1] (setting [5]) is listed as “+ (<150)”. This compound also showed an Emax in assay [2] (setting [6]) of under 50%.

For the compound `Cc1nn(C)c(C)c1S(=O)(=O)NC(=O)C1CCc2c(Cl)cccc21` (centres unmarked) [III-4], the “Maximum % activity (with co-corrector)” value in assay [1] (setting [3]) is recorded as “+ (<150)”. In addition, the EC50 in assay [1] (with 2 μM co-corrector) and in assay [2] was at least 10 µM in each case. Moreover, in assay [2] (normalized to positive control), the Emax was under 50%.

As to `COc1cccc2c1CCC2C(=O)NS(=O)(=O)c1nnc(NC(C)=O)s1` (centres unmarked) [III-24], the “Maximum % activity (with co-corrector)” value in assay [1] (setting [3]) is reported as “+ (<150)”. For the same compound, the EC50 in assay [1] (with 2 μM co-corrector) and in assay [2] was at least 10 µM each time. The compound also displayed an Emax in assay [2] (normalized to positive control) of under 50%.

With `Cc1ccccc1S(=O)(=O)NC(=O)C1(C)CCc2c1ccc(F)c2F` (centres unmarked) [II-20], the “Maximum % activity (with co-corrector)” value in assay [1] (setting [3]) is “++ (≥150 and <350)”. The EC50 in assay [1] (with 2 μM co-corrector) and in assay [2] was 3 to 10 µM in each case. Also, in assay [2] (normalized to positive control), the maximal effect (Emax) is under 50%.

Turning to `COc1cccc2c1CCC2C(=O)NS(=O)(=O)c1ccc2cc(O)ccc2c1` (centres unmarked) [III-22], the “Maximum % activity (with co-corrector)” value in assay [1] (setting [3]) is “+ (<150)”. Also, the 50% effective concentration (EC50) in assay [1] (with 2 μM co-corrector) and in assay [2] was at least 10 µM each time. This compound also yielded a maximum response (Emax) in assay [2] (normalized to positive control) of under 50%.

Consider `Cc1ccccc1S(=O)(=O)NC(=O)C1CCCc2ccccc21` (centres unmarked) [II-7], for which, in assay [1] (setting [3]), the “Maximum % activity (with co-corrector)” value is “++ (≥150 and <350)”. In addition, the concentration for a half-maximal effect (EC50) in assay [1] (with 2 μM co-corrector) and in assay [2] was 3 to 10 µM each time. For the same compound, the Emax in assay [2] (normalized to positive control) is under 50%.

In the case of `COc1ccc(C2CCC2)c2c1[C@@H](C(=O)NS(=O)(=O)c1cccc3ncn(C)c13)CC2` [Example I-123, (1S)-4-cyclobutyl-7-methoxy-N-(1-methyl-1H-benzimidazole-7-sulfonyl)-2,3-dihydro-1H-indene-1-carboxamide], the “Maximum % activity (with co-corrector)” value in assay [1] (setting [3]) is recorded as “+++ (≥350)”. The 50% effective concentration (EC50) is under 3 µM in assay [1] (with 2 μM co-corrector) and 3 to 10 µM in assay [2]. For the same compound, the maximum response (Emax) in assay [2] (normalized to positive control) was at least 150%.

With `COc1ccc(C(F)(F)F)c2c1[C@@H](C(=O)NS(=O)(=O)c1cccc3nc(C)ccc13)CC2` [Example I-117, (1S)-7-methoxy-N-(2-methylquinoline-5-sulfonyl)-4-(trifluoromethyl)-2,3-dihydro-1H-indene-1-carboxamide], the “Maximum % activity (with co-corrector)” value in assay [1] (setting [3]) was “+++ (≥350)”. In addition, the concentration for a half-maximal effect (EC50) in assay [1] (with 2 μM co-corrector) and in assay [2] was 3 to 10 µM in each case. Besides, in assay [2] (normalized to positive control), the maximum response (Emax) is at least 150%.

By EC50 is commonly meant the midpoint of the concentration-response curve. A high value points to a need for much substance. As a reminder, the Emax is the maximal effect, on the per cent scale that the assay sets.

Values taken from patent publication US20180244611A1, “Modulators of the Cystic Fibrosis Transmembrane Conductance Regulator Protein and Methods of Use” (AbbVie S.à.r.l., priority 2017, published 2018).
